From EP1991561B1, “BRANCHED MULTIMERIC PEPTIDES FOR TUMOR DIAGNOSIS AND THERAPY” (Universita' Degli Studi di Siena, priority 2006, dated 2007)
Like-named read-outs stand apart in the source and are kept apart here.

Assays:
[1] = test system: HT29 tumors; experiment: In vivo tumor growth retardation, HT29 tumors grafted in nude mice; set-up: species or system CD-1 nude mice; settings: i.v. on days 0, 5, 10 and 15, 4.05 µmol/kg
Excerpt: The invention will be now described by non limiting examples referring to the following figures: • FIGURE 1. […] NT4(8-13) peptide binding and cell internalization. […] Lysosome localization of NT4(8-13)-TMR. […] NT4(8-13) binding to colon and pancreas tumoral biopsies. Confocal microscopy images of (A) human sections of colon carcinoma, (B) healthy colon, (C) pancreatic carcinoma and (D) healthy pancreas. […] NTR regeneration. […] NT4(8-13)-Che6 cytotoxicity. […] The cells were then washed to remove unbound conjugate and irradiated (except for dark controls) with a total light dose of 3 J/cm^2. Drug phototoxicity was assessed by measuring cell survival, using the MTT assay 24 hours after irradiation. Negative controls (--) included HT29 cells incubated with the conjugate and not irradiated, cells irradiated and not incubated and untreated cells. • FIGURE 9. […] Inhibition of cell growth was tested by an MTT assay after 72 hours of incubation. • FIGURE 10. In vivo tumor growth retardation mediated by NT4(8-13)-MTX. […] Five days after the last injection, animals were sacrificed and tumors were removed and weighed.

[2] = biological target: T1, NT receptors (NTR) (Homo sapiens, UniProt P30989); experiment: Inhibition of 125I-NT binding to HT29 cell membranes; settings: displacement of 125I-NT, HT29 human adenocarcinoma cell membranes
T1 construct: HT29 human adenocarcinoma cell membranes, that over-express NTR; endogenous in cells; host or cells: HT29 human colon adenocarcinoma cell membranes
T1 sequence (P30989 whole entry): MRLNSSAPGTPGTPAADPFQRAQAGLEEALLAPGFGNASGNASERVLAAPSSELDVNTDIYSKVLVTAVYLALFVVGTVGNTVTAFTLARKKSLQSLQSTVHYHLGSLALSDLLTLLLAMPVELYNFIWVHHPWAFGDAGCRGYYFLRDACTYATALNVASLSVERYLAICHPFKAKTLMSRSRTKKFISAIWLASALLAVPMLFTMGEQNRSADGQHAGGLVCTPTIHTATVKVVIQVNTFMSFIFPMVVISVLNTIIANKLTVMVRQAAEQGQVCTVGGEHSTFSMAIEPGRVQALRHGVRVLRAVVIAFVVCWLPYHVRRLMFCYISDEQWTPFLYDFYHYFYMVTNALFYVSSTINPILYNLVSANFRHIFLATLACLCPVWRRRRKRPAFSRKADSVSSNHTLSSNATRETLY
Excerpt: A tetrameric peptide carrying scrambled NT aminoacids (LRIPRY), scramble NT4(8-13), was used as control and allowed to verify sequence specificity.

[3] = test system: human colon tumors; experiment: Fluorescent detection of NT receptors in colon biopsy sections; format: binding; settings: 0.5 µg/ml, avidin-FITC
Procedure: (§2) Tumoral and healthy colon and pancreatic tissues were collected from oncological patients undergoing tumor resection. Frozen tissue tek® (Sakura Finetechnical, Tokyo, Japan) embedded tissues were sliced 15 µm thick in a cryostat (Reichert- Jung 2800 frigocut N) and placed on glass slides. Serial sections of the same biopsy were analysed both by hematoxylin/eosin (H&E) light microscopy and by fluorescent confocal microscopy. For immunofluorescent analysis the sections were fixed by immersion in 3% paraformaldehyde in PBS for 15' at room temperature., washed once and stored over night at 4°C with 0.1 M glycine in PBS. After saturation with fetal calf serum, the slices were incubated for 30' at 37°C with NT4(8-13)-Bio (0.5 µg/ml in PBS-BSA 3%) or with the uncorrelated branched peptide (DDHSAV, SEQ ID No. 4)4-Bio (0.5 µg/ml in PBS-BSA 3%), washed twice with PBS and incubated with avidin-FITC (0.5 µg/ml in PBS-BSA 3%) for 15' at room temperature. After washing, the sections were mounted with Mowiol® (Calbiochem, Cat. No. 475904) and sealed with nail polish. Negative controls were carried out incubating the slices (both tumoral and normal tissues) with avidin-FITC without previous incubation with NT4(8-13)-Bio. The fluorescine signal was observed by confocal laser microscopy (BIO-Rad MRC600) with a 488 nm excitation light.

[4] = test system: HT29 cells
Excerpt: Nonetheless, down-regulation of receptors and their depletion from the membrane may dramatically impair the efficiency of a peptide-based therapy.

[5] = test system: healthy and tumoral pancreatic tissues; settings: 0.5 µg/ml, avidin-FITC
Procedure: as §2

[6] = test system: HT29 cells; experiment: Phototoxicity (photokilling) by MTT assay; format: cell-based, human; settings: 4 hours at 37°C in the dark, 100 µM to 0.1 µM, irradiated 3 J/cm^2
Procedure: In order to assess the phototoxicity of NT4(8-13)-Che6 conjugate, photokilling experiments were carried out on HT29 cells. HT29 cells (2 x 10^4/well) were plated in 96-well microplates. After growing for 2 days, the cells were incubated at 37°C in the dark with different concentrations of NT4-Che6 (from 100 µM to 0.1 µM in RPMI with 10% FCS) for 4 hours. The cells were then washed to remove unbound conjugate and irradiated (except dark controls) with a Zeiss KL1500 tungsten halogen lamp (Zeiss, Jena, Germany) equipped with a 600-800 nm band pass filter (Corion, Franklin, MA) and with two optical fibers placed 1 cm from the well. The plate was placed back in the incubator overnight and the phototoxicity of the conjugate was monitored in a MTT assay. Similar experiments were performed with scramble NT4(8-13)-Che6 [(LRIPRY)4-Che6] and with free Che6. Further controls included HT29 cells incubated with the conjugate and not irradiated, cells irradiated and not incubated and untreated cells.

[7] = test system: HT29 tumors
Procedure: Female CD-1 nude mice (Charles River Laboratories Inc., Wilmington, MA) 6-7 weeks of age (mean weight of 25 g), were injected subcutaneously in the right flank with of 2 x 10^6 HT29 cells.
Tumor volumes were measured daily with a caliper using the following formula: Volume = length x width^2 x Π/6. The tumor volumes for each group were pooled to plot mean tumor growth curves. At the end of the experiment, the mice were sacrificed. Tumors were removed and weighed and the weights compared between treated and control mice.

[8] = test system: HT29 cells; experiment: In vitro cytostatic activity by MTT assay, HT29; format: cell-based, human
Procedure: HT29 cells were plated in 0.2 ml aliquots at a density of 5 x 10^3 in a 96-well microplate. Different concentrations of NT4-MTX were added 24 hours after plating. Growth inhibition was assessed by MTT assay 6 days later. The same experiments were carried out with the scramble analog of the conjugate and with free MTX.
The same experiments were performed with the scramble analogue [(LRIPRY)4-MTX] and with unconjugated MTX. SW620 (NTR-expressing human colon carcinoma cell line, Istituto Zooprofilattico Sperimentale, Brescia, Italy) and on HCT116 (NTR-expressing human colon carcinoma cell line, Istituto Zooprofilattico Sperimentale, Brescia, Italy cell lines) were also tested with the same procedure.

[9] = test system: HaCat cells; settings: 5 µg/ml, 1h at 4°C
Procedure: (§1) Confocal laser microscopy was used to carry out receptor binding assays. […] After fixing with 4% formalin, the plasma membrane was stained by incubation with concanavalin A-biotin (10 µg/mL in PBS - 1% BSA, Molecular Probes, Cat. No. C21420) at 4°C for 15 min and avidin-FITC (0.5 µg/ml in PBS - 1% BSA, Sigma, Cat. No S3762).

[10] = test system: HT29 cells; settings: 1 h at 4°C, washed, then 37°C
[11] = test system: HT29 cells; experiment: Confocal laser microscopy receptor binding assay on HT29 cells; format: cell-based, human; settings: 5 µg/ml in PBS - 1% BSA, 1 hour at 4°C
Procedure: as §1

[12] = test system: HT29 cells; experiment: Lysosomal localization with lysotracker green in HT29 cells; settings: 1 h at 4°C followed by 4 hours in DMEM at 37°C

For CN(Cc1cnc2nc(N)nc(N)c2n1)c1ccc(C(=O)N[C@@H](CCC(=O)O)C(=O)O)cc1 [MTX, Methotrexate], the tumor growth ([1]; compared to control mice) was “slight decrease in tumor growth” and the “Tumor weight, measured at the end of the experiment” value ([1]; five days after the last injection, Fig. 10) was “almost the same”.

With “Tetrameric NT(8-13)4-PEG-Biotin [NT4(8-13)-Bio]” the IC50 [2] was 0.1 nM, the “fluorescent staining of tumoral biopsies” value ([3]; colon tumoral biopsies (ten), 30' at 37°C) was “All colon tumoral specimens were positively stained” and the “fluorescent staining of healthy tissue” value ([3]; corresponding normal colon tissue from the same patient) was “only one of the healthy tissues showed a low fluorescent signal”. For the same compound, the “green signal (avidin FITC) after receptor saturation” value ([4]; 0.5 µg/ml, directly after saturation with NT4(8-13)-TMR) was “did not produce any detectable green signal”, the “receptor availability for ligand binding after regeneration” value ([4]; after saturation with NT4(8-13)-TMR, washing and 37°C in culture medium overnight) was “the receptor was again available for ligand binding” and the “binding to tumoral versus healthy tissue” value [5] was “Analogous results”.

In the case of “tetrabranched NT(8-13)4-PEG-Chlorine e6 [NT4(8-13)-Che6]”, the IC50 [2] is reported as 2200 nM and the “phototoxicity (cell survival, MTT)” value [6] is reported as “maintained its cytotoxicity”.

With “tetrabranched NT(8-13)-PEG-Methotrexate [NT4(8-13)-MTX]” the IC50 [2] was 500 nM, the mice death ([7]; 4.05 µmol/kg iv on days 0, 5, 10 and 15) was “no mice death was observed” and the Tumor weight ([7]; at the end of the experiment, 4.05 µmol/kg iv x4) was “significantly reduced”. The tumor growth ([7]; iv on days 0, 5, 10 and 15, 4.05 µmol/kg, compared to control mice) was “prevented tumor growth”, the “volume of tumors relative to mice injected with PBS” value ([7]; iv on days 0, 5, 10 and 15, 4.05 µmol/kg, over the whole treatment) was “about one third” and the “cytostatic activity (inhibition of cell growth, MTT)” value [8] was “active”.

For “tetrameric NT(8-13)4-PEG-Tetramethyl rhodamine [NT4(8-13)-TMR]”, the rhodamine signal [9] was “no rhodamine signal”, the peptide fluorescence localization ([10]; 4 hours) was “completely internalised” and the peptide fluorescence localization ([10]; 18 hours) was “complete degradation of the peptide conjugate”. For the same compound, the peptide fluorescence localization ([10]; time 0) was “localized exclusively on the plasma membrane”, the peptide fluorescence localization ([10]; two hours) was “present on the plasma membrane and in the cytoplasm” and the “saturation of membrane receptors” value ([4]; 100 µg/ml in PBS - 1% BSA, 1 h at 4°C) was “saturated”. The “red fluorescent signal on the plasma membrane” value [11] was “binding of the peptide to membrane receptors” and the lysosomal localization [12] was “colocalization of NT4(8-13)-TMR with lysotracker green was observed”.
